The target of test [1] is CDK1/Cyclin B1 (Homo sapiens, UniProt P06493). Description: CDK1/Cyclin B1 Biochemical Assay (TR-FRET), 0.015 mM ATP. Particulars: 0.15 μM Rb (Ser780)-biotin substrate, pH7.0, 60 min preincubation, 120 min reaction, room temperature. An outline of the steps: (§1)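 TR-FRET assay with 0.15 μM Rb (Ser780)-biotin substrate and 0-10 μM compound in 50 mM HEPES pH7.0, 50 mM MgCl2, 1 mM DTT. ATP was 0.060 mM for CDK2/Cyclin E1 and 0.015 mM for CDK1/Cyclin B1. Kinase was preincubated with compound 60 min, reacted 120 min at room temperature, and IC50 was fitted (four-parameter) from the 665/620 nm ratio.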

Test [2] concerns the target CDK2/Cyclin E1 (Homo sapiens, UniProt P24941). Description: CDK2/Cyclin E1 Biochemical Assay (TR-FRET), 0.060 mM ATP. The note with it: 0.15 μM Rb (Ser780)-biotin substrate, pH7.0, 60 min preincubation, 120 min reaction, room temperature. An outline of the steps:
as §1
For orientation: Time-resolved FRET reads energy transfer from a long-lived donor to a nearby acceptor.

CDK1/Cyclin B1, sequence (P06493 whole entry): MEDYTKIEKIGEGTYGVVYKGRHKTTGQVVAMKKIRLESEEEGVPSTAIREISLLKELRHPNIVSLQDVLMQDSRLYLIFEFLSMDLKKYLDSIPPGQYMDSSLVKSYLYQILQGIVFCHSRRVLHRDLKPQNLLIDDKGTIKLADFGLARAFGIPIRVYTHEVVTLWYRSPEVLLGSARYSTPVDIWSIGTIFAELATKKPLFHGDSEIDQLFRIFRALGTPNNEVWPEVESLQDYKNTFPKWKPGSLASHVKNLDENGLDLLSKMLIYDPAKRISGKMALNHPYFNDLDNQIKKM
CDK1/Cyclin B1, sequence (P14635 whole entry partner): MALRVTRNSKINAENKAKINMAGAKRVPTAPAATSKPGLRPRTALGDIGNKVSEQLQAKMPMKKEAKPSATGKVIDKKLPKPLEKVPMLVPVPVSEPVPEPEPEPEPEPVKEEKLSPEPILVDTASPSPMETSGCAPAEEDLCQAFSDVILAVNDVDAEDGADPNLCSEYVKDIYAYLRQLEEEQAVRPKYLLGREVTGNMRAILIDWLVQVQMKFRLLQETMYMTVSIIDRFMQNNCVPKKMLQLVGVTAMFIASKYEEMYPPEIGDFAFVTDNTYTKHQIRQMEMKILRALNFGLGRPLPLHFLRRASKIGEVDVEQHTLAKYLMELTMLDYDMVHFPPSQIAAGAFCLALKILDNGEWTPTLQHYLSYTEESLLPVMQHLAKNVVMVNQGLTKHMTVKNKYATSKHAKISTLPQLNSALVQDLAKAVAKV

Take `CC(=O)N1CCC(N2Cc3c(ccc(Nc4cc([C@@H]5CC[C@H](OC(=O)NC(C)C)C5)[nH]n4)c3F)S2(=O)=O)CC1` (relative stereo) [Example 78, cis-3-(3-((2-(1-acetylpiperidin-4-yl)-4-fluoro-1,1-dioxido-2,3-dihydrobenzo[d]isothiazol-5-yl)amino)-1H-pyrazol-5-yl)cyclopentyl isopropylcarbamate]: the figures for the half-maximal inhibitory concentration (IC50) in test [1] and in test [2] were 556 nM and 8.9 nM, respectively.

Turning to `CC(C)NC(=O)O[C@H]1CC[C@@H](c2cc(Nc3ccc4c(c3F)CN(C3CCNC3=O)S4(=O)=O)n[nH]2)C1` (relative stereo) [Example 79, cis-3-(3-((4-fluoro-1,1-dioxido-2-(2-oxopyrrolidin-3-yl)-2,3-dihydrobenzo[d]isothiazol-5-yl)amino)-1H-pyrazol-5-yl)cyclopentyl isopropylcarbamate], the concentration for half-maximal inhibition (IC50) (as a rule, the concentration at which inhibition is half-maximal) in test [1] amounted to 638 nM; in test [2], 8.3 nM.

On to `CC(=O)N1CCC(N2Cc3c(ccc(Nc4cc([C@@H]5CC[C@H](OC(=O)NC(C)C)C5)[nH]n4)c3F)S2(=O)=O)C1` (relative stereo) [Example 80, cis-3-(3-((2-(1-acetylpyrrolidin-3-yl)-4-fluoro-1,1-dioxido-2,3-dihydrobenzo[d]isothiazol-5-yl)amino)-1H-pyrazol-5-yl)cyclopentyl isopropylcarbamate], for which the half-maximal inhibitory concentration (IC50) came out at 767 nM in test [1] and 10 nM in test [2].

In the case of `CC(C)NC(=O)O[C@H]1CC[C@@H](c2cc(Nc3ccc4c(c3F)CN(C3CCNC(=O)C3)S4(=O)=O)n[nH]2)C1` (relative stereo) [Example 81, cis-3-(3-((4-fluoro-1,1-dioxido-2-(2-oxopiperidin-4-yl)-2,3-dihydrobenzo[d]isothiazol-5-yl)amino)-1H-pyrazol-5-yl)cyclopentyl isopropylcarbamate], the IC50 turned out to be 537 nM in test [1] and 7.2 nM in test [2].

As to `CC(C)NC(=O)O[C@H]1CC[C@@H](c2cc(Nc3ccc4c(c3F)CN(C3CCC(=O)NC3)S4(=O)=O)n[nH]2)C1` (relative stereo) [Example 82, cis-3-(3-((4-fluoro-1,1-dioxido-2-(6-oxopiperidin-3-yl)-2,3-dihydrobenzo[d]isothiazol-5-yl)amino)-1H-pyrazol-5-yl)cyclopentyl isopropylcarbamate], the IC50 in test [1] was found to be 381 nM; in test [2], 10 nM.

For `CC(C)NC(=O)O[C@H]1CC[C@@H](c2cc(Nc3ccc4c(c3F)CN(C3CCC(=O)N(C)C3)S4(=O)=O)n[nH]2)C1` (relative stereo) [Example 83, cis-3-(3-((4-fluoro-2-(1-methyl-6-oxopiperidin-3-yl)-1,1-dioxido-2,3-dihydrobenzo[d]isothiazol-5-yl)amino)-1H-pyrazol-5-yl)cyclopentyl isopropylcarbamate], the figures for the IC50 in test [1] and in test [2] were 565 nM and 15 nM, respectively.

As for `CC(C)NC(=O)O[C@H]1CC[C@@H](c2cc(Nc3ccc4c(c3F)CN(C3CC(O)C3)S4(=O)=O)n[nH]2)C1` (relative stereo) [Example 84, 3-(3-((4-fluoro-2-(3-hydroxycyclobutyl)-1,1-dioxido-2,3-dihydrobenzo[d]isothiazol-5-yl)amino)-1H-pyrazol-5-yl)cyclopentyl isopropylcarbamate], the half-maximal inhibitory concentration (IC50) in test [1] amounted to 390 nM; in test [2], 8.6 nM.

In the case of `CC(C)NC(=O)O[C@H]1CC[C@@H](c2cc(Nc3ccc4c(c3F)CN(C3CCN(S(C)(=O)=O)C3)S4(=O)=O)n[nH]2)C1` (relative stereo) [Example 85, cis-3-(3-((4-fluoro-2-(1-(methylsulfonyl)pyrrolidin-3-yl)-1,1-dioxido-2,3-dihydrobenzo[d]isothiazol-5-yl)amino)-1H-pyrazol-5-yl)cyclopentyl isopropylcarbamate], the values for the half-inhibitory concentration (IC50) in test [1] and in test [2] were 470 nM and 4.6 nM, respectively.

With `CC(C)NC(=O)O[C@H]1CC[C@@H](c2cc(Nc3ccc4c(c3F)CN(C3CCCNC3=O)S4(=O)=O)n[nH]2)C1` (relative stereo) [Example 86, cis-3-(3-((4-fluoro-1,1-dioxido-2-(2-oxopiperidin-3-yl)-2,3-dihydrobenzo[d]isothiazol-5-yl)amino)-1H-pyrazol-5-yl)cyclopentyl isopropylcarbamate], the IC50 in test [1] was found to be 735 nM; in test [2], 7.8 nM.

`CC(C)NC(=O)O[C@H]1CC[C@@H](c2cc(Nc3ccc4c(c3F)CN(C3CCN(Cc5ccccc5)C3)S4(=O)=O)n[nH]2)C1` (relative stereo) [Example 87, cis-3-(3-((2-(1-benzylpyrrolidin-3-yl)-4-fluoro-1,1-dioxido-2,3-dihydrobenzo[d]isothiazol-5-yl)amino)-1H-pyrazol-5-yl)cyclopentyl isopropylcarbamate]: the 50% inhibitory concentration (IC50) in test [1] turned out to be 1090 nM; in test [2], 29 nM.

In the case of `CC(C)NC(=O)O[C@H]1CC[C@@H](c2cc(Nc3ccc4c(c3F)CN(C3CCCN(C)C3=O)S4(=O)=O)n[nH]2)C1` (relative stereo) [Example 88, cis-3-(3-((4-fluoro-2-(1-methyl-2-oxopiperidin-3-yl)-1,1-dioxido-2,3-dihydrobenzo[d]isothiazol-5-yl)amino)-1H-pyrazol-5-yl)cyclopentyl isopropylcarbamate], the results for the concentration for half-maximal inhibition (IC50) in test [1] and in test [2] were 1010 nM and 10 nM, respectively.

For the molecule `CC(C)NC(=O)O[C@H]1CC[C@@H](c2cc(Nc3ccc4c(c3F)CN(C3CN(S(C)(=O)=O)C3)S4(=O)=O)n[nH]2)C1` (relative stereo) [Example 89, cis-3-(3-((4-fluoro-2-(1-(methylsulfonyl)azetidin-3-yl)-1,1-dioxido-2,3-dihydrobenzo[d]isothiazol-5-yl)amino)-1H-pyrazol-5-yl)cyclopentyl isopropylcarbamate], the half-inhibitory concentration (IC50) in test [1] amounted to 879 nM; in test [2], 34 nM.

Consider `CC(=O)N1CC(N2Cc3c(ccc(Nc4cc([C@@H]5CC[C@H](OC(=O)NC(C)C)C5)[nH]n4)c3F)S2(=O)=O)C1` (relative stereo) [Example 90, cis-3-(3-((2-(1-acetylazetidin-3-yl)-4-fluoro-1,1-dioxido-2,3-dihydrobenzo[d]isothiazol-5-yl)amino)-1H-pyrazol-5-yl)cyclopentyl isopropylcarbamate], for which the 50% inhibitory concentration (IC50) in test [1] was 762 nM; in test [2], 20 nM.

In the case of `CC(C)NC(=O)O[C@H]1CC[C@@H](c2cc(Nc3ccc4c(c3F)CN(C3CN(C)C3)S4(=O)=O)n[nH]2)C1` (relative stereo) [Example 91, cis-3-(3-((4-fluoro-2-(1-methylazetidin-3-yl)-1,1-dioxido-2,3-dihydrobenzo[d]isothiazol-5-yl)amino)-1H-pyrazol-5-yl)cyclopentyl isopropylcarbamate], the results for the concentration for half-maximal inhibition (IC50) in test [1] and in test [2] were 945 nM and 24 nM, respectively.

Take `CC(C)NC(=O)O[C@H]1CC[C@@H](c2cc(Nc3ccc4c(c3F)CN(C3CN(Cc5ccccc5)C3)S4(=O)=O)n[nH]2)C1` (relative stereo) [Example 92, cis-3-(3-((2-(1-benzylazetidin-3-yl)-4-fluoro-1,1-dioxido-2,3-dihydrobenzo[d]isothiazol-5-yl)amino)-1H-pyrazol-5-yl)cyclopentyl isopropylcarbamate]: the half-maximal inhibitory concentration (IC50) in test [1] was 1550 nM; in test [2], 36 nM.

The record behind these values is US20260297080A1, “BICYCLIC COMPOUNDS AS CDK INHIBITORS” (BeOne Medicines I GmbH, priority 2022, published 2026).
